{
  "source": "patent US20030017186A1",
  "about": "“Carboxylic acid fluorides as pesticides” (priority 1999, published 2003)",
  "type_in_all_cases": "in vivo",
  "key": {"[1]": {"tested_on": "Broad-horned flour beetle (Gnathocerus cornutus)", "test": "Fumigation test in glass vessel, broad-horned flour beetles", "settings": "GNATCO beetles; Example 7; ACF 53.0/54.6/0 g/m^3, second gas (SF) 43.6/41.4/39.8 g/m^3 (1st/2nd/3rd fumigation); 20.0/20.2/19.8 C.", "source_text": "(§1) a3) Broad-horned flour beetle (Gnathocerus cornutus)=GNATCO\n(§2) The test organisms, separated by species, were placed into a glass vessel measuring 30 cm×30 cm×60 cm, which was sealed with a glass lid so as to be airtight. The adults and the larvae of the mealworm beetle (Tenebrio molitor) and the broad-horned flour beetle (Gnathocerus cornutus) were placed into small glass vessels approximately 5 cm in diameter, which were closed with a gauze lid and in which they could freely move about. The larvae of the rice weevil had burrowed into seeds of grain. The wood pest larvae were inserted into small blocks of wood measuring 5 cm×2.5 cm×2 cm. The openings were sealed with wads of cotton wool. Only one each of the larvae of the house longhorn beetle (Hylotrupes bajulus) was inserted into a piece of wood, while 6-8 larvae of the common furniture beetle (Anobium punctatum) were inserted into each piece of wood.\n(§3) The respective gas was then introduced into the fumigation vessel through a gas line from a gas tank that contained the specified amount of gas. After a defined time period, the fumigation vessel was purged with compressed air. The discharged gas was purified by an attached gas scrubber.\n(§4) The beetles were observed until they died. This point was recorded for each species. The larvae of the wood pests as well as the larvae of the rice weevil (Sitophilus oryzae) had to be picked out of the wood or the grain to check their condition. If any of the animals were still alive, the wooden test blocks remaining in the vessel were fumigated again and were reexamined after the corresponding time span had elapsed. The same number of animals in the untreated control was also checked at each point.\n(§5) The vitality of the animals was checked at certain time intervals. The beetles could be observed through the fumigation vessel. This was also true for the larvae of the mealworm beetle and the broad-horned flour beetle. The wooden test blocks of the wood pest larvae were opened with hammer and chisel. Tweezers were used to pull the rice weevil larvae out of the grain seeds. The exact time intervals and the number of the evaluated pests were documented in the test results."}, "[2]": {"tested_on": "Mealworm beetle (Tenebrio molitor)", "test": "Fumigation test in glass vessel, mealworm beetles", "settings": "TENEMO beetles; Example 7; ACF 53.0/54.6/0 g/m^3, second gas (SF) 43.6/41.4/39.8 g/m^3 (1st/2nd/3rd fumigation); 20.0/20.2/19.8 C.", "source_text": "(§6) a1) Mealworm beetle (Tenebrio molitor)=TENEMO\nas §2, §3, §4, §5"}, "[3]": {"tested_on": "Rice weevil (Sitophilus oryzae)", "test": "Fumigation test in glass vessel, rice weevils", "settings": "SITTOR beetles; Example 7; ACF 53.0/54.6/0 g/m^3, second gas (SF) 43.6/41.4/39.8 g/m^3 (1st/2nd/3rd fumigation); 20.0/20.2/19.8 C.", "source_text": "a2) Rice weevil (Sitophilus oryzae)=SITTOR\nas §2, §3, §4, §5"}, "[4]": {"tested_on": "Common furniture beetle (Anobium punctatum) larvae", "test": "Fumigation test in glass vessel, common furniture beetle larvae in wood blocks", "settings": "ANOBPU larvae in wood blocks; Example 7; ACF 53.0/54.6/0 g/m^3, second gas (SF) 43.6/41.4/39.8 g/m^3 (1st/2nd/3rd fumigation); 20.0/20.2/19.8 C.", "source_text": "b2) Common furniture beetle (Anobium punctatum)=[…]\nas §2, §3, §4, §5"}, "[5]": {"tested_on": "Broad-horned flour beetle (Gnathocerus cornutus) larvae", "test": "Fumigation test in glass vessel, broad-horned flour beetle larvae", "settings": "GNATCO larvae; Example 7; ACF 53.0/54.6/0 g/m^3, second gas (SF) 43.6/41.4/39.8 g/m^3 (1st/2nd/3rd fumigation); 20.0/20.2/19.8 C.", "source_text": "as §1, §2, §3, §4, §5"}, "[6]": {"tested_on": "Mealworm beetle (Tenebrio molitor) larvae", "test": "Fumigation test in glass vessel, mealworm beetle larvae", "settings": "TENEMO larvae; Example 7; ACF 53.0/54.6/0 g/m^3, second gas (SF) 43.6/41.4/39.8 g/m^3 (1st/2nd/3rd fumigation); 20.0/20.2/19.8 C.", "source_text": "as §6, §2, §3, §4, §5"}, "[7]": {"tested_on": "Saw-toothed grain beetle (Oryzaephilus surinamensis)", "test": "Fumigation test in glass vessel, saw-toothed grain beetles", "settings": "ORYZSA beetles; Example 7; ACF 53.0/54.6/0 g/m^3, second gas (SF) 43.6/41.4/39.8 g/m^3 (1st/2nd/3rd fumigation); 20.0/20.2/19.8 C.", "source_text": "a4) Saw-toothed grain beetle (Oryzaephilus surinamensis)=ORYZSA\nas §2, §3, §4, §5"}, "[8]": {"tested_on": "House longhorn beetle (Hylotrupes bajulus)", "test": "Fumigation test in glass vessel, house longhorn beetles", "settings": "HYLOBA beetles; Example 7; ACF 53.0/54.6/0 g/m^3, second gas (SF) 43.6/41.4/39.8 g/m^3 (1st/2nd/3rd fumigation); 20.0/20.2/19.8 C.", "source_text": "(§7) b1) House longhorn beetle (Hylotrupes bajulus)=HYLOBA\nas §2, §3, §4, §5"}, "[9]": {"tested_on": "House longhorn beetle (Hylotrupes bajulus) larvae", "test": "Fumigation test in glass vessel, house longhorn beetle larvae in wood blocks", "settings": "HYLOBA larvae in wood blocks; Example 7; ACF 53.0/54.6/0 g/m^3, second gas (SF) 43.6/41.4/39.8 g/m^3 (1st/2nd/3rd fumigation); 20.0/20.2/19.8 C.", "source_text": "as §7, §2, §3, §4, §5"}},
  "data": [
    {"smiles": "O=C(F)C(F)(F)Cl", "note": "[CFACF, chlorodifluoroacetyl fluoride]", "values": [
      {"measurement": "Number alive, 30 min. after 1st Fumigation", "setting": "[1]", "value": 0},
      {"measurement": "Number dead, 30 min. after 1st Fumigation", "setting": "[1]", "value": 15},
      {"measurement": "Number alive, 30 min. after 1st Fumigation", "setting": "[2]", "value": 10},
      {"measurement": "Number alive, 1 hr. after 1st Fumigation", "setting": "[2]", "value": 10},
      {"measurement": "Number alive, 3 hrs. after 1st Fumigation", "setting": "[2]", "value": 10},
      {"measurement": "Number alive, 6 hrs after 1st Fumigation", "setting": "[2]", "value": 5},
      {"measurement": "Number dead, 30 min. after 1st Fumigation", "setting": "[2]", "value": 0},
      {"measurement": "Number dead, 1 hr. after 1st Fumigation", "setting": "[2]", "value": 0},
      {"measurement": "Number dead, 3 hrs. after 1st Fumigation", "setting": "[2]", "value": 0},
      {"measurement": "Number dead, 6 hrs after 1st Fumigation", "setting": "[2]", "value": 5},
      {"measurement": "Number alive, 30 min. after 1st Fumigation", "setting": "[3]", "value": 7},
      {"measurement": "Number alive, 1 hr. after 1st Fumigation", "setting": "[3]", "value": 7},
      {"measurement": "Number alive, 3 hrs. after 1st Fumigation", "setting": "[3]", "value": 0},
      {"measurement": "Number dead, 30 min. after 1st Fumigation", "setting": "[3]", "value": 8},
      {"measurement": "Number dead, 1 hr. after 1st Fumigation", "setting": "[3]", "value": 8},
      {"measurement": "Number dead, 3 hrs. after 1st Fumigation", "setting": "[3]", "value": 15},
      {"measurement": "Number alive, 1 hr. after 1st Fumigation", "setting": "[4]", "value": 6},
      {"measurement": "Number alive, 3 hrs. after 1st Fumigation", "setting": "[4]", "value": 3},
      {"measurement": "Number alive, 6 hrs after 1st Fumigation", "setting": "[4]", "value": 4},
      {"measurement": "Number dead, 1 hr. after 1st Fumigation", "setting": "[4]", "value": 0},
      {"measurement": "Number dead, 3 hrs. after 1st Fumigation", "setting": "[4]", "value": 3},
      {"measurement": "Number dead, 6 hrs after 1st Fumigation", "setting": "[4]", "value": 2},
      {"measurement": "Number alive, 30 min. after 1st Fumigation", "setting": "[5]", "value": 7},
      {"measurement": "Number alive, 1 hr. after 1st Fumigation", "setting": "[5]", "value": 7},
      {"measurement": "Number alive, 3 hrs. after 1st Fumigation", "setting": "[5]", "value": 0},
      {"measurement": "Number dead, 30 min. after 1st Fumigation", "setting": "[5]", "value": 8},
      {"measurement": "Number dead, 1 hr. after 1st Fumigation", "setting": "[5]", "value": 8},
      {"measurement": "Number dead, 3 hrs. after 1st Fumigation", "setting": "[5]", "value": 15},
      {"measurement": "Number alive, 30 min. after 1st Fumigation", "setting": "[6]", "value": 10},
      {"measurement": "Number alive, 1 hr. after 1st Fumigation", "setting": "[6]", "value": 10},
      {"measurement": "Number alive, 3 hrs. after 1st Fumigation", "setting": "[6]", "value": 0},
      {"measurement": "Number dead, 30 min. after 1st Fumigation", "setting": "[6]", "value": 0},
      {"measurement": "Number dead, 1 hr. after 1st Fumigation", "setting": "[6]", "value": 0},
      {"measurement": "Number dead, 3 hrs. after 1st Fumigation", "setting": "[6]", "value": 10},
      {"measurement": "Number alive, 30 min. after 1st Fumigation", "setting": "[7]", "value": 0},
      {"measurement": "Number dead, 30 min. after 1st Fumigation", "setting": "[7]", "value": 15},
      {"measurement": "Number alive, 30 min. after 1st Fumigation", "setting": "[8]", "value": 0},
      {"measurement": "Number dead, 30 min. after 1st Fumigation", "setting": "[8]", "value": 6},
      {"measurement": "Number alive, 1 hr. after 1st Fumigation", "setting": "[9]", "value": 5},
      {"measurement": "Number alive, 3 hrs. after 1st Fumigation", "setting": "[9]", "value": 5},
      {"measurement": "Number alive, 6 hrs after 1st Fumigation", "setting": "[9]", "value": 5},
      {"measurement": "Number dead, 1 hr. after 1st Fumigation", "setting": "[9]", "value": 0},
      {"measurement": "Number dead, 3 hrs. after 1st Fumigation", "setting": "[9]", "value": 0},
      {"measurement": "Number dead, 6 hrs after 1st Fumigation", "setting": "[9]", "value": 0}
    ]}
  ]
}
